Experimental data reported in patent EP0308190A2, “Ultra mild skin cleansing toilet bar with selected mixed polymers” (THE PROCTER & GAMBLE COMPANY, priority 1987, dated 1989).

Tested on: skin epidermis

Cocoyl Isethionate
Relative Skin Barrier Penetration Value: 40
